Results from patent US9512440B2, “Modulation of receptor-like kinases for promotion of plant growth” (IOWA STATE UNIVERSITY RESEARCH FOUNDATION, INC., priority 2009, dated 2016).

Columns and labels:
HERK1, THE1 and FER = assay: quantitative RT-PCR of HERK1, THE1 and FER expression after hormone treatment; format: in vivo, Arabidopsis thaliana
Text: (1A) The expression of HERK1, THE1 and FER is induced by BL treatment in 10-day-old seedlings and 4-week-old adult plants. Triplicate biological samples were used to prepare RNA for quantitative RT PCR. The relative expression levels compared to UBQ5 gene were used to determine the BL-induction levels of each gene. The averages and standard deviations from three biological repeats are shown. […] Ten-day-old seedlings were used to prepare RNA for qRT-PCR as described in (1A). (1C-E) HERK1 cellular localization: A HERK1-GFP (1C) or BES1-D-GFP (1D) construct was introduced into protoplasts or transgenic plants (1E). HERK1 is mostly localized at the plasma membrane (1C and 1E), while BES1-D is primarily in the nucleus (1D). […] Recombinant proteins fused with MBP representing the wild-type HERK1 kinase domain (WT), and a mutant version with disrupted kinase activity (mutant), were used in kinase assay. […] The bars in 1G/1H and 1I represent 2.5 and 10 mm, respectively.
(8A) Regulation of HERK1, THE1 and FER as well as other CrRLK family members by BL. The data are derived from microarray experiments with light-growing seedlings treated with 10 nM BL for 3 hr, which is published in a public website (http://bbc.botany.utoronto.ca/efp/cgi-bin/efpWeb.cgi). […] The averages and standard deviations for 2 biological replicates are shown. (8C) the herk1 the1 double mutant has a normal GA response in a hypocotyl elongation assay. […]
For reverse transcription-polymerase chain reaction (RT-PCR), 2 μg total RNA was reverse-transcribed to cDNA by SuperScript II Reverse Transcriptase (Invitrogen). For real-time quantitative RT-PCR, the primers were designed so that the products are between 200-300 bps. The SYBR Green PCR Master mix (Applied Biosystems) was used and the PCR reactions were run on the Mx4000® multiplex quantitative PCR system (Stratagene). Two or three biological replicates were each analyzed with 2-3 RT-PCR reactions. For semi-quantitative RT-PCR, the same amount of cDNA was used for each PCR reaction. […]

[1] = system: herk1 the1 double mutant 24-day-old adult plants; assay: Affymetrix microarray gene expression, herk1 the1 double mutant adult plants with BL; format: in vivo, Arabidopsis thaliana
Description: (§1) Microarray experiments were performed with 24-day-old adult plants. The whole plants were sprayed with either water or […] and incubate for 2.5 hours. The plants were pooled into three groups as triplicates (8 plants per group). Total RNA was prepared with RNeasy Plant Mini Kit (QIAGEN) and used to make probes for microarray experiments with Affymetrix Arabidopsis Genomic arrays. The probe labeling, hybridization, and scanning were performed according to manufacture's instructions. Microarray data was normalized by the MAS 5.0 method implemented in the R package affy and the linear model was applied to two sample comparison (samples with and without BL treatment or WT compared to mutant) using the limma package (39, 40). Genes with an adjusted p-value <=0.01 were considered to be differentially expressed. The BR-induced genes, HERK1/THE regulated genes were used for clustering analysis with the GENESPRING program (Silicon Genetics) using Pearson Correlation.

[2] = system: wild-type 24-day-old adult plants; assay: Affymetrix microarray gene expression, wild-type adult plants with BL; format: in vivo, Arabidopsis thaliana
Description: as §1

CrRLK family members = conditions: 10 nM BL for 3 hr; cited from earlier work
CrRLK1L family RLKs = assay: microarray of CrRLK1L family expression, 2-week-old seedlings with or without BL; format: in vivo, Arabidopsis thaliana; conditions: wild-type (En-2), BL 1 uM, 3 hr
Description: (9A) The expression of CrRLK family RLKs by BL in WT and bes1-D mutant. Microarrays were performed with 2-week-old seedlings with or without BL treatment (1 uM, 3 hr). At5g38990 and At5g39000 have the same probe set in Affymetrix ATH1 Genome arrays, so only the former is shown. (9B) BR responses of the indicated mutants at the seedling stage, performed as described. (9C) Plant phenotypes of 24-day-old adult plants. The bar represents 10 mm. (9D) Petiole lengths of the sixth leaf in WT and mutants. Averages and standard deviations from 10 plants are shown. (E) A model for HERK signaling and its crosstalk with BR pathway.
BRs function to regulate cell elongation and many other processes^10-13. BRs signal through a membrane-localized receptor kinase BRI1 and other signaling components^10, 14-16 to control BES1 and BZR1 family transcription factors, which mediate the expression of many genes for BR responses^17-20. […] To further confirm that these RLK genes are modulated by BRs and/or BES1, we performed a microarray experiment with bes-D mutant^19, a constitutive BR response mutant due to highly accumulated BES1 protein, with En-2 as wild-type control (L.L. & Y.Y. in preparation). The expression of all CrRLK1L members is examined (FIG. 5A).

[3] = adult plants, microarray, adjusted p-value <=0.01

C=C1C[C@]23C[C@@]1(O)CC[C@H]2[C@@]12C=C[C@H](O)[C@@](C)(C(=O)O1)[C@H]2[C@@H]3C(=O)O [GA3]
regulation of expression of HERK1, THE1, and FER (HERK1, THE1 and FER; 10-day-old seedlings, qRT-PCR): up-regulates

O=C(O)Cc1c[nH]c2ccccc12 [IAA]
regulation of expression of HERK1 (HERK1, THE1 and FER; 10-day-old seedlings, qRT-PCR): appears to induce

CC(C)[C@H](C)[C@@H](O)[C@H](O)[C@@H](C)[C@H]1CC[C@H]2[C@@H]3COC(=O)[C@H]4C[C@H](O)[C@H](O)C[C@]4(C)[C@H]3CC[C@]12C [BL, brassinolide]
up-regulation of HERK1, THE1 and FER expression (HERK1, THE1 and FER; seedlings and/or adult plants, relative to UBQ5, p<0.01): 20-80%
gene expression level At3g45960 (EXPL3) ([1]; herk1 the1-BL 18): 44
gene expression level At1g20190 (EXP11) ([1]; herk1 the1-BL 35): 225
gene expression level AT1G10550 (XTH33) ([1]; herk1 the1-BL 48): 191
gene expression level At1g65310 (XTH17) ([1]; herk1 the1-BL 95): 302
gene expression level At4g38400 (EXPL2) ([1]; herk1 the1-BL 151): 381
gene expression level At2g20750 (EXPB1) ([1]; herk1 the1-BL 161): 157
gene expression level At4g30290 (XTH19) ([1]; herk1 the1-BL 162): 259
gene expression level At3g07010 (PLL20) ([1]; herk1 the1-BL 325): 829
gene expression level At2g37640 (EXP3) ([1]; herk1 the1-BL 340): 594
gene expression level AT1G11545 (XTH8) ([1]; herk1 the1-BL 357): 1249
gene expression level At2g40610 (EXP8) ([1]; herk1 the1-BL 437): 1586
gene expression level At3g45970 (EXPL1) ([1]; herk1 the1-BL 529): 970
gene expression level At3g23730 (XTH16) ([1]; herk1 the1-BL 636): 1069
gene expression level At3g29030 (EXP5) ([1]; herk1 the1-BL 1523): 1848
gene expression level At4g37800 (XTH7) ([1]; herk1 the1-BL 1831): 2864
gene expression level At1g04680 (PLL26) ([1]; herk1 the1-BL 1982): 2932
gene expression level At2g28950 (EXP6) ([1]; herk1 the1-BL 2074): 1919
gene expression level AT5G57560 (XTH22) ([1]; herk1 the1-BL 2728): 7941
gene expression level At1g69530 (EXP1) ([1]; herk1 the1-BL 3595): 6462
gene expression level At2g06850 (XTH4) ([1]; herk1 the1-BL 5096): 11194
gene expression level At3g45960 (EXPL3) ([2]; WT + BL, WT-BL 24): 92
gene expression level AT1G10550 (XTH33) ([2]; WT + BL, WT-BL 47): 223
gene expression level At1g65310 (XTH17) ([2]; WT + BL, WT-BL 137): 214
gene expression level At1g20190 (EXP11) ([2]; WT + BL, WT-BL 141): 395
gene expression level At4g30290 (XTH19) ([2]; WT + BL, WT-BL 153): 297
gene expression level At4g38400 (EXPL2) ([2]; WT + BL, WT-BL 188): 433
gene expression level At2g20750 (EXPB1) ([2]; WT + BL, WT-BL 295): 198
gene expression level At2g37640 (EXP3) ([2]; WT + BL, WT-BL 384): 641
gene expression level At3g07010 (PLL20) ([2]; WT + BL, WT-BL 427): 939
gene expression level AT1G11545 (XTH8) ([2]; WT + BL, WT-BL 453): 1178
gene expression level At3g23730 (XTH16) ([2]; WT + BL, WT-BL 559): 819
gene expression level At3g45970 (EXPL1) ([2]; WT + BL, WT-BL 581): 1339
gene expression level At2g40610 (EXP8) ([2]; WT + BL, WT-BL 1006): 2407
gene expression level AT5G57560 (XTH22) ([2]; WT + BL, WT-BL 2277): 7344
gene expression level At3g29030 (EXP5) ([2]; WT + BL, WT-BL 2323): 2112
gene expression level At1g04680 (PLL26) ([2]; WT + BL, WT-BL 2466): 3402
gene expression level At4g37800 (XTH7) ([2]; WT + BL, WT-BL 2899): 3419
gene expression level At2g28950 (EXP6) ([2]; WT + BL, WT-BL 3287): 2524
gene expression level At1g69530 (EXP1) ([2]; WT + BL, WT-BL 6798): 8465
gene expression level At2g06850 (XTH4) ([2]; WT + BL, WT-BL 7247): 13455
number of genes whose expression BL induces [2, 3]: 650
number of genes whose expression BL represses [2, 3]: 520
induction of HERK1, THE1 and FER among CrRLK family members (CrRLK family members): most highly induced
regulation of At2g39360, At5g24010, At1g30570, At5g38990/At5g39000 and At5g39020 (CrRLK family members): slightly induced
regulation of FER, THE1, HERK1, At1g30570 (HERK2), At2g39360 and At5g24010 (CrRLK1L family RLKs): slightly upregulated
